Source: paper PMC11602988 (The Journal of Biological Chemistry, 2024)
Numbering of substitutions follows the chain as printed. Entries after “also recorded” stand apart in the source; their conditions may differ. Read-outs that look alike come from different tables or passages of the source.

Legend:
OCT1 Phe244Ala variant [1] = target: T1, OCT1 Phe244Ala variant (Homo sapiens, UniProt O15245, F244A); test: Concentration-dependent uptake kinetics, HEK293 cells overexpressing OCT1 Phe244Ala; conditions: for Clint: OCT1 Phe244Ala, ratio of vmax over Km; for Km, Phe244Ala compared to WT / Maximum transport capacity (vmax), Phe244Ala compared to WT: uptake kinetics, in words;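 for all read-outs here: cells exposed to rising substrate concentrations in buffer, intracellular drug measured by HPLC-tandem mass spectrometry, quantified against a standard curve, uptake referenced to empty vector-transfected HEK293 controls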
T1 sequence (O15245 1-554 F244A): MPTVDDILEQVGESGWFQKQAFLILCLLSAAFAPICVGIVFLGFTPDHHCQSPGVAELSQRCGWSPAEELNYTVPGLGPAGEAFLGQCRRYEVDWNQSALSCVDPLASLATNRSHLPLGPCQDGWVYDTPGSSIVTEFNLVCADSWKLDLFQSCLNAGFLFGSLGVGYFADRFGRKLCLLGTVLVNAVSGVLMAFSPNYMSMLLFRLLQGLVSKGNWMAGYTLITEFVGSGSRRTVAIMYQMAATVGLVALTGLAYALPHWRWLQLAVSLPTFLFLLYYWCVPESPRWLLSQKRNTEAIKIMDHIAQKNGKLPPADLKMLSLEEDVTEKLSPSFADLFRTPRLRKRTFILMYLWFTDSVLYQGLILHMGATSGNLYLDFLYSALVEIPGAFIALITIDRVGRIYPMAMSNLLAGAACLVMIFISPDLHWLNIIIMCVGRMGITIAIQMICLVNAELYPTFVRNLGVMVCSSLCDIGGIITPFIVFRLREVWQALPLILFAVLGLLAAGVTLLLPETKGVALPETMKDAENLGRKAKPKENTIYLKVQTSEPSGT

OCT1 WT [2] = target: T2, OCT1 WT (Homo sapiens, UniProt O15245); test: Uptake screening (transport ratio over empty vector), HEK293 cells overexpressing OCT1 WT; assay type: cell-based; design: expressed in transfected cells;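 note: intracellular substrate levels quantified by HPLC–tandem mass spectrometry after uptake in HBSS+ buffer at 37 °C, stable Flp-In HEK293 lines, fold change versus empty vector–transfected cells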
T2 sequence (O15245 1-554): T1 sequence (O15245 1-554 F244A) with A244F

OCT1 WT [3] = target: T2, OCT1 WT; test: Concentration-dependent uptake kinetics, HEK293 cells overexpressing OCT1 WT; conditions: for Clint: OCT1 WT, ratio of vmax over Km
OCT1 Phe244Ala variant [4] = target: T1, OCT1 Phe244Ala variant; test: Uptake screening (transport ratio over empty vector), HEK293 cells overexpressing OCT1 Phe244Ala variant; assay type: cell-based; design: expressed in transfected cells;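 note: stably transfected HEK293 cells, intracellular substrate quantified by HPLC-tandem mass spectrometry in cell lysates, uptake in HBSS+ buffer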
OCT1 Phe244Ala variant [5] = target: T1, OCT1 Phe244Ala variant; test: Inhibition of (R,S)-ethambutol uptake, HEK293 cells overexpressing OCT1 Phe244Ala; conditions: for Inhibition of the Phe244Ala mutant compared to the WT transporter (screening): 20 μM inhibitor, 2 μM (R,S)-ethambutol, 5 min
OCT1 WT [6] = target: T2, OCT1 WT; test: cell-based
OCT1 Phe244Ala variant [7] = target: T1, OCT1 Phe244Ala variant; test: cell-based
OCT1 Phe244Ala variant [8] = target: T1, OCT1 Phe244Ala variant; test: Stereoselective cell uptake of racemic substrates (chiral LC-MS/MS), OCT1 Phe244Ala variant; conditions: 2.5 μM racemic substance, 2 min
[9] = uptake ratio over empty vector, HEK293 cells overexpressing OCT1 WT
[10] = Phe244Ala uptake relative to WT
[11] = uptake ratio over empty vector, HEK293 cells overexpressing OCT1 Phe244Ala
[12] = uptake ratio of OCT1 WT-overexpressing HEK293 cells over empty vector
[13] = Phe244Ala uptake relative to OCT1 WT
[14] = uptake ratio of OCT1 Phe244Ala-overexpressing HEK293 cells over empty vector
[15] = 2.5 μM substrate, 2 min, Phe244Ala uptake relative to WT

| Compound | Clint (OCT1 Phe244Ala variant [1]) | Mean_transport_ratio_WT (OCT1 WT [2]; [9]) | Clint (OCT1 WT [3]) | Mean_transport_ratio_Phe244Ala (OCT1 Phe244Ala variant [4]; [11]) | relative_Phe244Ala_uptake_in% (OCT1 Phe244Ala variant [4]; [13]) [%] | also measured |
| --- | --- | --- | --- | --- | --- | --- |
| CC(C)(C)NCC(O)COc1cccc2c1CCC(=O)N2 (stereo not drawn) [Carteolol] | 7.82 ± 8.13 ml × g Protein^−1 × min^−1 | 3.378 | 1.01 ± 1.41 ml × g Protein^−1 × min^−1 | 8.502 |  | Fold increased uptake rate by Phe244Ala compared to WT (OCT1 Phe244Ala variant [4]; 2.5 μM substrate, 2 min): 3.2 fold; relative_Phe244Ala_uptake_in% (OCT1 Phe244Ala variant [4]; [10]): 315.540% |
| Clc1cccc(Cl)c1N=C1NCCN1 [Clonidine] |  |  |  |  |  | Inhibition of the Phe244Ala mutant compared to the WT transporter (screening) (OCT1 Phe244Ala variant [5]): strongly reduced inhibition; Fold difference of inhibitory potency between WT and Phe244Ala (OCT1 Phe244Ala variant [5]; IC50 comparison, (R,S)-ethambutol uptake): 21 fold; IC50 (OCT1 WT [6]): 1620 nM; IC50 (OCT1 Phe244Ala variant [7]): 34.3 µM |
| CC(CCc1ccc(O)cc1)NCCc1ccc(O)c(O)c1 (stereo not drawn) [Dobutamine] | 7.88 ± 6.38 ml × g Protein^−1 × min^−1 | 6.852 | 3.03 ± 6.16 ml × g Protein^−1 × min^−1 | 15.606 |  | Km, Phe244Ala compared to WT (OCT1 Phe244Ala variant [1]): lower Km values; relative_Phe244Ala_uptake_in% (OCT1 Phe244Ala variant [4]; [10]): 249.567% |
| NC(N)=Nc1nc(CSCCC(N)=NS(N)(=O)=O)cs1 [Famotidine] | 12.1 ± 19.8 ml × g Protein^−1 × min^−1 |  | 45.8 ± 45.7 ml × g Protein^−1 × min^−1 |  |  | Km, Phe244Ala compared to WT (OCT1 Phe244Ala variant [1]): higher Km values; Maximum transport capacity (vmax), Phe244Ala compared to WT (OCT1 Phe244Ala variant [1]): more similar maximum transport capacities |
| CN[C@@H]1CCc2[nH]c3ccc(C(N)=O)cc3c2C1 [Frovatriptan] |  |  |  |  | 43.181 | Mean_transport_ratio_WT (OCT1 WT [2]; [12]): 22.068; Mean_transport_ratio_Phe244Ala (OCT1 Phe244Ala variant [4]; [14]): 10.097; Stereoselectivity of Phe244Ala variant compared to WT (OCT1 Phe244Ala variant [8]): opposite stereoselectivities; also recorded: only one enantiomer of the racemic mixtures showed altered transport |
| COc1cc(CCN)cc(OC)c1OC [Mescaline] | 0.91 ± 2.50 ml × g Protein^−1 × min^−1 |  | 4.84 ± 2.55 ml × g Protein^−1 × min^−1 |  | 16.381 | Inhibition of the Phe244Ala mutant compared to the WT transporter (screening) (OCT1 Phe244Ala variant [5]): strongly reduced inhibition; Km, Phe244Ala compared to WT (OCT1 Phe244Ala variant [1]): higher apparent affinity Km and transport capacity vmax for the WT transporter than the Phe244Ala variant; Maximum transport capacity (vmax), Phe244Ala compared to WT (OCT1 Phe244Ala variant [1]): higher apparent affinity Km and transport capacity vmax for the WT transporter than the Phe244Ala variant; Mean_transport_ratio_WT (OCT1 WT [2]; [12]): 5.297; Transport activity of Phe244Ala in % of WT activity (OCT1 Phe244Ala variant [4]; [15]): ~10%; Mean_transport_ratio_Phe244Ala (OCT1 Phe244Ala variant [4]; [14]): 1.704 |
| CC(=O)OC(C)C[N+](C)(C)C (stereo not drawn) [Methacholine, Acetyl-beta-methylcholine] | 3.03 ± 8.29 ml × g Protein^−1 × min^−1 |  | 14.1 ± 15.2 ml × g Protein^−1 × min^−1 |  |  | Km, Phe244Ala compared to WT (OCT1 Phe244Ala variant [1]): higher Km values; Maximum transport capacity (vmax), Phe244Ala compared to WT (OCT1 Phe244Ala variant [1]): more similar maximum transport capacities; Transport activity of Phe244Ala in % of WT activity (OCT1 Phe244Ala variant [4]; [15]): ~10% |
| CC(C)[N+](C)(CCOC(=O)C1c2ccccc2Oc2ccccc21)C(C)C [Propanthelin, Propantheline] | 205 ± 124 ml × g Protein^−1 × min^−1 |  | 224 ± 251 ml × g Protein^−1 × min^−1 |  |  |  |
| CCN1CCCC1CNC(=O)c1cc(S(N)(=O)=O)ccc1OC (stereo not drawn) [Sulpiride] | 4.01 ± 3.27 ml × g Protein^−1 × min^−1 |  | 2.65 ± 3.09 ml × g Protein^−1 × min^−1 |  |  | vmax (OCT1 Phe244Ala variant [1]): 418 ± 65 pmol × mg protein^−1 × min^−1; vmax (OCT1 WT [3]): 237 ± 49.7 pmol × mg protein^−1 × min^−1 |
| Cc1ncc(C[n+]2csc(CCO)c2C)c(N)n1 [Thiamine] | 2.70 ± 5.44 ml × g Protein^−1 × min^−1 | 42.169 | 7.51 ± 8.28 ml × g Protein^−1 × min^−1 | 9.954 | 21.749 | Maximum transport capacity (vmax), Phe244Ala compared to WT (OCT1 Phe244Ala variant [1]): reduced transport capacity |
| COc1cc(Cc2cnc(N)nc2N)cc(OC)c1OC [Trimethoprim] |  | 3.204 |  | 1.519 | 23.542 | Inhibition of the Phe244Ala mutant compared to the WT transporter (screening) (OCT1 Phe244Ala variant [5]): strongly reduced inhibition |
| O=C(O[C@H]1C[C@H]2CC[C@@H](C1)[N+]21CCCC1)C(O)(c1ccccc1)c1ccccc1 [Trospium] |  | 27.542 |  | 29.384 | 106.940 |  |
| NCCc1c[nH]c2ccccc12 [Tryptamin] |  | 2.619 |  | 1.149 | 9.229 |  |
| OC(c1ccccc1)(c1ccccc1)C12CC[N+](CCOCc3ccccc3)(CC1)CC2 [Umeclidinium] |  | 6.027 |  | 7.391 | 127.145 |  |
| C=CCN1CCCC1CNC(=O)c1cc(S(N)(=O)=O)cc(OC)c1OC (stereo not drawn) [Veralipride] |  | 1.907 |  | 5.345 | 478.904 |  |
| Cc1cc(C(C)(C)C)cc(C)c1CC1=NCCN1 [Xylometazoline] |  | 2.256 |  | 4.046 | 242.447 |  |
| COCCn1c2c([n+](Cc3cnccn3)c1C)C(=O)c1ccccc1C2=O [YM155] |  | 18.329 |  | 16.385 | 88.784 |  |
| CN(C)CCc1c[nH]c2ccc(C[C@H]3COC(=O)N3)cc12 [Zolmitriptan] | 13.3 ± 17.5 ml × g Protein^−1 × min^−1 |  | 21.6 ± 26.4 ml × g Protein^−1 × min^−1 |  |  | Maximum transport capacity (vmax), Phe244Ala compared to WT (OCT1 Phe244Ala variant [1]): reduced transport capacity |
| NCCc1cccc(O)c1 [m-Tyramine] |  | 6.001 |  | 1.687 | 13.730 |  |
| NCCc1ccc(O)cc1 [p-Tyramine] |  | 4.809 |  | 1.435 | 11.429 |  |
| (-)-Sparteine |  |  |  |  |  | Mean_transport_ratio_WT (OCT1 WT [2]): 5.032; Mean_transport_ratio_Phe244Ala (OCT1 Phe244Ala variant [4]): 4.411; relative_Phe244Ala_uptake_in% (OCT1 Phe244Ala variant [4]): 84.604% |
